Measurements taken from the NIST ThermoML archive (doi:10.1016/j.fluid.2007.01.001).

Assay: xn = mol fraction of the nth substance listed
Conditions: 101 kPa, Liquid; for viscosity: Capillary tube (Ostwald / Ubbelohde) method; for speed of sound: Frequency=2 MHz, Linear variable-path acoustic interferometer; for mass density: Pycnometric method

CCCCC(C)O (stereo not given) [2-hexanol] + Cc1ccccc1
Conditions | mass density, 298.15 K [kg/m3] | mass density, 308.15 K [kg/m3] | speed of sound, 298.15 K [m/s] | speed of sound, 308.15 K [m/s] | viscosity, 298.15 K [mPa·s] | viscosity, 308.15 K [mPa·s]
x2 = 0 | 810.84 | 801.75 | 1290 | 1255 | 4.105 | 2.92
x2 = 0.0497 | 812.91 | 803.69 | 1286 | 1251 | 3.548 | 2.566
x2 = 0.1007 | 815.08 | 805.85 | 1284 | 1245 | 3.087 | 2.273
x2 = 0.1588 | 817.53 | 808.16 | 1281 | 1243 | 2.741 | 1.935
x2 = 0.1993 | 819.29 | 809.89 | 1278 | 1240 | 2.427 | 1.703
x2 = 0.252 | 821.5 | 812.03 | 1274 | 1237 | 2.11 | 1.519
x2 = 0.2999 | 823.59 | 813.99 | 1270 | 1235 | 1.849 | 1.303
x2 = 0.3495 | 825.77 | 816.07 | 1269 | 1232 | 1.619 | 1.153
x2 = 0.4016 | 828.16 | 818.34 | 1267 | 1230 | 1.439 | 1.046
x2 = 0.4468 | 830.21 | 820.35 | 1265 | 1229 | 1.318 | 0.962
x2 = 0.5012 | 832.7 | 822.9 | 1265 | 1228 | 1.165 | 0.85
x2 = 0.5502 | 835.1 | 825.27 | 1264 | 1228 | 1.061 | 0.794
x2 = 0.6003 | 837.61 | 827.79 | 1263 | 1228 | 0.953 | 0.766
x2 = 0.6492 | 840.23 | 830.36 | 1267 | 1229 | 0.92 | 0.689
x2 = 0.7008 | 843.05 | 833.28 | 1268 | 1230 | 0.866 | 0.671
x2 = 0.7476 | 845.75 | 835.92 | 1271 | 1232 | 0.84 | 0.611
x2 = 0.8006 | 848.93 | 839.1 | 1276 | 1237 | 0.762 | 0.579
x2 = 0.8502 | 852.09 | 842.25 | 1280 | 1242 | 0.686 | 0.561
x2 = 0.8945 | 855.01 | 845.2 | 1286 | 1249 | 0.649 | 0.531
x2 = 0.9407 | 858.09 | 848.38 | 1294 | 1257 | 0.638 | 0.527

CCCCCCC(C)O (stereo not given) [2-octanol] + Cc1ccccc1
Conditions | mass density, 298.15 K [kg/m3] | mass density, 308.15 K [kg/m3] | speed of sound, 298.15 K [m/s] | speed of sound, 308.15 K [m/s] | viscosity, 298.15 K [mPa·s] | viscosity, 308.15 K [mPa·s]
x2 = 0 | 817.08 | 809.89 | 1328 | 1292 | 6.429 | 4.365
x2 = 0.0494 | 818.49 | 811.13 | 1323 | 1285 | 5.547 | 3.837
x2 = 0.0991 | 819.89 | 812.4 | 1317 | 1280 | 4.813 | 3.373
x2 = 0.1497 | 821.39 | 813.76 | 1313 | 1274 | 4.186 | 2.975
x2 = 0.1999 | 822.91 | 815.11 | 1306 | 1268 | 3.559 | 2.563
x2 = 0.2511 | 824.47 | 816.48 | 1299 | 1261 | 3.069 | 2.264
x2 = 0.2996 | 826.03 | 817.85 | 1294 | 1257 | 2.652 | 1.986
x2 = 0.354 | 827.83 | 819.46 | 1289 | 1250 | 2.239 | 1.685
x2 = 0.3998 | 829.43 | 820.91 | 1285 | 1247 | 1.966 | 1.488
x2 = 0.4469 | 831.12 | 822.49 | 1279 | 1243 | 1.69 | 1.276
x2 = 0.5 | 833.15 | 824.35 | 1277 | 1239 | 1.462 | 1.121
x2 = 0.5509 | 835.22 | 826.29 | 1273 | 1235 | 1.263 | 1.004
x2 = 0.5995 | 837.33 | 828.32 | 1271 | 1234 | 1.104 | 0.912
x2 = 0.6486 | 839.67 | 830.43 | 1270 | 1232 | 0.947 | 0.836
x2 = 0.701 | 842.33 | 832.94 | 1270 | 1233 | 0.88 | 0.77
x2 = 0.7477 | 844.88 | 835.37 | 1271 | 1234 | 0.791 | 0.707
x2 = 0.7989 | 847.89 | 838.32 | 1273 | 1237 | 0.716 | 0.649
x2 = 0.8513 | 851.18 | 841.6 | 1278 | 1241 | 0.628 | 0.569
x2 = 0.9 | 854.46 | 844.93 | 1286 | 1247 | 0.636 | 0.573
x2 = 0.9511 | 858.12 | 848.66 | 1294 | 1255 | 0.574 | 0.506
